From US20220257621A1, “CANCER CELL PROLIFERATION SUPPRESSION AGENT AND COMPOSITION FOR SUPPRESSING PROLIFERATION OF CANCER CELLS” (SHOWA DENKO K.K., priority 2019, published 2022)

Assays:
[1] = system: cell line derived from Lewis lung carcinoma (LLC); assay: Effect of suppressing invasion of cancer cells (CytoSelect invasion assay kit); format: cell-based; settings: sample 0.001% by mass 24 h, then atmospheric dust 500 μg/mL 6 h + 18 h, fluorescence relative to control without dust = 1, dust + water = 1.67
Experimental: The effect of the inositol derivative on suppressing the invasion of cancer in a cell line derived from Lewis lung carcinoma (LLC, JCRB Cell Bank) was measured under the following conditions. A CytoSelect invasion assay kit manufactured by Cell Biolabs, Inc. was used for a test. The LLC cells were seeded in a chamber plate for invasion tests attached to the above-mentioned invasion assay kit so that the concentration was 100000 cells/mL using a culture medium in which a Ham F10 medium and an L15 medium (both manufactured by Sigma-Aldrich) were mixed at the ratio of 3:7 (volume ratio), and cultured for 24 hours under the conditions of 37° C. and 5% CO2. Next, an aqueous solution of the inositol derivative or an aqueous solution of myo-inositol was added to the culture medium so that the final concentration of the inositol derivative or myo-inositol was 0.001% by mass, or water (pure water) was added to the culture medium, and culturing was further performed for 24 hours. […] Thereafter, the cells were stained using the above-mentioned invasion assay kit, and the fluorescence intensity at an excitation wavelength of 480 nm/an absorption wavelength of 570 nm was measured with a microplate reader i-Control (manufactured by Tecan Group Ltd.). […]

[2] = system: cell line derived from Lewis lung carcinoma (LLC); assay: Effect (1) of suppressing proliferation of cancer cells accelerated by atmospheric dust (WST-8); format: cell-based; settings: sample 0.001% by mass 24 h, then atmospheric dust 500 μg/mL 48 h, WST-8 absorbance 450 nm relative to control without dust = 1, dust + water = 2.31
Experimental: The effect of the inositol derivative on suppressing the proliferation of cancer cells in a cell line derived from Lewis lung carcinoma (LLC, JCRB Cell Bank) was measured under the following conditions. The LLC cells were seeded at the seeding density of 50000 cells/cm^2 in a culture medium in which a Ham F 10 medium and an L15 medium (both manufactured by Sigma-Aldrich) were mixed at the ratio of 3:7 (volume ratio), and cultured for 24 hours under the conditions of 37° C. and 5% CO2. Next, an aqueous solution of the inositol derivative or an aqueous solution of myo-inositol was added to the culture medium so that the final concentration of the inositol derivative or myo-inositol was 0.001% by mass, or water (pure water) was added to the culture medium, and culturing was further performed for 24 hours. Thereafter, 0.1 mL of a DMSO solution of atmospheric dust (NIST 1648a) was added per 100 mL of the culture medium so that the final concentration of the atmospheric dust in the culture medium was 500 μg/mL, and culturing was further performed for 48 hours in the same conditions as above. Thereafter, the culture medium was replaced with a medium containing 10% (V/V) of WST-8 of Nacalai Tesque Inc., and after further culturing for 3 hours, the absorbance at the wavelength of 450 nm was measured with a microplate reader i-Control (manufactured by Tecan Group Ltd.). […]

CYP1A1 gene = assay: Suppression of CYP1A1 gene expression induced by atmospheric dust (quantitative real-time PCR); format: cell-based, human; settings: NHEK; sample 0.001% by mass 24 h, then atmospheric dust (NIST 1648a) 500 μg/mL 48 h; standardized to GAPDH; control without dust = 1; dust + water = 4.11
Experimental: The effect of the inositol derivative on suppressing the expression of a CYP1A1 gene and a CYP1B1 gene in normal human epidermal keratinocytes (NHEK, manufactured by KURABO INDUSTRIES LTD.) was measured under the following conditions.
The NHEK cells were seeded in a HuMedia KG2 medium manufactured by KURABO INDUSTRIES LTD. at the seeding density of 10000 cells/cm^2, and cultured for 24 hours under the conditions of 37° C. and 5% CO2. […] Using this cDNA as a template, the expression levels of the CYP1A1 gene and the CYP1B1 gene were quantitatively determined by quantitative real-time PCR using primers (QuantiTect Primer Assays, manufactured by QIAGEN) specific to the CYP1A1 gene and the CYP1B1 gene. As an internal standard gene, the expression level of a GAPDH gene, which is a housekeeping gene in which expression fluctuation due to the addition of atmospheric dust is not shown, was quantitatively determined (primer used: Perfect Real Time Primer, manufactured by Takara Bio Inc.), and the expression levels of the CYP1A1 gene and the CYP1B1 gene were standardized based on the expression level of GAPDH. […]

- Relative gene expression level CYP1A1 (CYP1A1 gene): 3.10
SMILES: O[C@H]1[C@H](O)[C@@H](O)[C@H](O)[C@@H](O)[C@H]1O [myo-Inositol, myo-inositol]
- Relative cell invasion [1]: 1.53
- Relative cell proliferation amount [2]: 2.03
